In ChEMBL document CHEMBL2417358, “Design, stereoselective synthesis, and biological evaluation of novel tri-cyclic compounds as inhibitor of apoptosis proteins (IAP) antagonists” (Bioorg Med Chem, 2013):

Experiments:
[1] = test system: MDA-MB-231; experiment: Growth inhibition of human MDA-MB-231 cells after 72 hrs by luminescence assay; type: functional; settings: MDA-MB-231, 72 h
[2] = Metabolic stability in mouse liver microsomes assessed as compound remaining at 1 umol/L after 15 to 30 mins by LC/MS/MS analysis; type: ADME, Microsome; settings: read-out: Stability
[3] = Metabolic stability in human liver microsomes assessed as compound remaining at 1 umol/L after 15 to 30 mins by LC/MS/MS analysis; type: ADME, Microsome; settings: read-out: Stability
[4] = test system: Mus musculus; experiment: Upregulation of TNFalpha mRNA level in human MDA-MB-231 cells expressing luciferase xenografted in po dosed mouse after 6 hrs by RT-PCR analysis; type: functional, organism-based

`CN[C@@H](C)C(=O)N[C@H](C(=O)N1C[C@H]2CCCN2C[C@H]1C(=O)N[C@@H]1CCOc2ccccc21)C1CCCCC1` gave a GI50 [1] of 5.7 nM.
Work on `CN[C@@H](C)C(=O)N[C@H](C(=O)N1C[C@H]2C[C@H]3C[C@H]3N2C[C@H]1C(=O)N[C@@H]1CCOc2ccccc21)C1CCCCC1` yielded a microsomal CLint at 1 µM [2] of 45 µL/min/mg, a microsomal CLint at 1 µM [3] of 39 µL/min/mg and a GI50 [1] of 83 nM.
With `CN[C@@H](C)C(=O)N[C@H](C(=O)N1C[C@H]2C[C@@H]3C[C@@H]3N2C[C@H]1C(=O)N[C@@H]1CCOc2ccccc21)C1CCCCC1` the microsomal CLint at 1 µM [2] was 96 µL/min/mg, the Activity [4] was “Dose-dependent effect” and the microsomal CLint at 1 µM [3] was 72 µL/min/mg. It also gave a GI50 [1] of 7.8 nM.
